Like-named read-outs stand apart in the source and are kept apart here.
Experiments:
hepatocytes = test: MOI validation: hepatocyte drug metabolism quantified in culture medium by liquid chromatography mass spectrometry; assay type: in vitro ADME; details: hepatocytes in well insert, medium sampled 0.5-72 h
Procedure: The MOI can be validated for all drugs of interest prior to applying it to sarcoma organoids. In one embodiment, the validation process includes printing 1,000-20,000 hepatocytes in the well insert and incubating in medium for 72 hours. In some embodiments, between about 5,000 and about 10,000 hepatocytes are provided in the well insert. At the 0.5, 1, 2, 4, 8, 12, 24, 48 and 72 h time-points, culture medium is collected from the well. Liquid chromatography mass spectrometry can be used to quantify the parent compound, its metabolites, and their concentrations. The goal is to identify conditions that recreate in vivo drug metabolism. […] To optimize these parameters, the size, shape, and cell density of the well insert can be changed if necessary. Hepatocyte viability and proliferation can be assessed for each time-point by Calcein AM and propidium iodide staining as well as an ATP assay. Optimal hepatocyte conditions and incubation periods for each drug can then be used in subsequent experiments.

EW-7 (Ewing's sarcoma) = details: EW-7 in mice; cited from earlier work
SAOS-LM7 (osteosarcoma) = details: cited from earlier work

Source text for tumor cells: Using the MOI device, tumor cells were co-cultured without, FIG. 12A, and with, FIG. 12B, liver organoid suspended on the MOI device.

Row | SMILES | tumor cell viability (tumor cells; control, without liver organoid on the MOI device (FIG. 12A), logarithmically increasing concentration) | tumor cell viability (tumor cells; with MOI-device-supported liver organoid (FIG. 12B), higher CP concentrations) | fraction converted into chloro-acetaldehyde (hepatocytes) | sensitivity of cell line in mice (EW-7 (Ewing's sarcoma)) | sensitivity of cell line in mice (SAOS-LM7 (osteosarcoma))
1 | O=P1(N(CCCl)CCCl)NCCCO1 (centres unmarked) [cyclophosphamide] | not significantly diminished | decreased | – | – | –
2 | O=P1(NCCCl)OCCCN1CCCl (centres unmarked) [ifosfamide] | – | – | 25-50% | sensitive | sensitive

From US20240010961A1 (priority 2020, published 2024)
